Experimental data reported in PubChem BioAssay (NCI).
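Method: 48-hour compound exposure of cells in 96-well plates, five concentrations, linear interpolation of endpoints. GI50 = concentration required for 50% inhibition of growth. TGI: concentration producing complete growth inhibition.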

Assays:
Assay in all cases: NCI tumour cell line growth inhibition, 48 h
A549 NSCLC = tested on: A549 NSCLC
CAKI-1 renal = tested on: CAKI-1 renal
CCRF-CEM leukemia = tested on: CCRF-CEM leukemia
EKVX NSCLC = tested on: EKVX NSCLC
HCT-116 colon = tested on: HCT-116 colon
HCT-15 colon = tested on: HCT-15 colon
HOP-92 NSCLC = tested on: HOP-92 NSCLC
LOX IMVI melanoma = tested on: LOX IMVI melanoma
SK-MEL-28 melanoma = tested on: SK-MEL-28 melanoma

SMILES | TGI (A549 NSCLC) [µM] | TGI (CAKI-1 renal) [µM] | TGI (CCRF-CEM leukemia) [µM] | TGI (EKVX NSCLC) [µM] | TGI (HCT-116 colon) [µM] | TGI (HCT-15 colon) [µM] | TGI (HOP-92 NSCLC) [µM] | TGI (LOX IMVI melanoma) [µM] | TGI (SK-MEL-28 melanoma) [µM] | GI50 (A549 NSCLC) [µM] | GI50 (CAKI-1 renal) [µM] | GI50 (EKVX NSCLC) [µM] | GI50 (HCT-116 colon) [µM] | GI50 (HCT-15 colon) [µM] | GI50 (HOP-92 NSCLC) [µM] | GI50 (SK-MEL-28 melanoma) [µM] | GI50 (CCRF-CEM leukemia) [µM] | GI50 (LOX IMVI melanoma) [µM]
O=C1OC(CC(=O)c2ccc(F)cc2)C(Cl)=C1Cl (centres undefined) | > 100 | 92.8 | > 100 | > 100 | 46.2 | 35.5 | 34.7 | 31.9 | > 100 | – | – | – | – | – | – | – | – | –
CN1CCN(CCCOc2cccc3nc(Nc4cc(Cl)cc(Cl)c4)ccc23)CC1 | 3.55 | 11.7 | – | 3.27 | 3.47 | 2.83 | 4.82 | – | 3.13 | 1.98 | 2.97 | 1.73 | 1.94 | 1.42 | 1.59 | 1.67 | – | –
Nc1n[n+]([O-])c2cc([N+](=O)[O-])ccc2[n+]1[O-] | 44.6 | 20.6 | 9.74 | – | 16.5 | 13.6 | – | > 100 | > 100 | – | – | – | – | – | – | – | – | –
C[C@@H](C1CC[C@H]2[C@@H]3[C@@H]4O[C@@H]4[C@@]4(O)CC=CC(=O)[C@]4(C)[C@H]3C[C@H](O)[C@]12C)[C@H]1C[C@]2(C)O[C@]2(C)C(=O)O1 (some centres undefined) | > 100 | > 100 | > 100 | > 100 | > 100 | > 100 | > 100 | > 100 | > 100 | – | – | – | – | – | – | – | – | –
OCC1NC(COC2OC(CO)C(O)C(O)C2O)C(O)C(O)C1O (centres undefined) | > 100 | > 100 | > 100 | – | > 100 | > 100 | > 100 | – | > 100 | – | – | – | – | – | – | – | – | –
Nc1nc(=O)n(C2CC(O)C(CO)O2)cc1F (centres undefined) | > 100 | > 100 | > 100 | > 100 | > 100 | > 100 | – | > 100 | > 100 | 0.0049 | < 0.0119 | – | 1.49 | 28.4 | 1.65 | – | 0.00276 | 0.01
CNC(=O)c1cc(Oc2ccc3nc(NC(=O)Nc4ccc(CN5CCOCC5)c(C(F)(F)F)c4)sc3c2)ccn1 | 5.86 | 6.83 | > 100 | 7.55 | 3.62 | 7.09 | 3.64 | 4.34 | 4.29 | 2.15 | 2.05 | 2.1 | 1.78 | 2.08 | 1.44 | 1.8 | 2.73 | 1.82
COc1ccc(-c2nn(-c3cccc(Cl)c3)cc2/C=C2\NC(=S)N(c3ccc(Cl)cc3)C2=O)cc1 | 9.73 | 13.2 | 11 | 15.8 | 7.75 | > 25 | 8.07 | > 25 | 7.97 | 3.35 | 4.79 | 4.32 | 3.18 | 7.94 | 1.84 | 4.1 | 2.98 | 5.97
C[C@@H](O)[C@@H](C)Oc1nc(Nc2ccc(S(=N)(=O)C3CC3)cc2)ncc1C(F)(F)F (some centres undefined) | 15.6 | > 100 | 0.0621 | – | > 100 | > 46.8 | 0.0753 | 10.7 | 0.178 | 0.0298 | 0.039 | – | 0.0228 | 0.0329 | 0.026 | 0.0294 | 0.0231 | 0.0178
N#C/C(=C\c1ccc(O)c(O)c1)C(=O)NCc1ccc(C(F)(F)F)cc1 | 53.5 | 1.81 | 14.7 | > 61.8 | 11.4 | 41.1 | 12.3 | 20.4 | 57 | 10.9 | – | 19.7 | 2.58 | 4.05 | 0.468 | 16.9 | 2.14 | 7.54
COC(=O)c1cc(-c2ccc3ccccc3c2)[nH]c(=O)c1C#N | > 100 | > 100 | – | > 100 | > 100 | > 100 | > 100 | > 100 | > 100 | – | – | – | – | – | – | – | – | –
CC(C)C[C@H](CC(=O)O)C(=O)N[C@@H](Cc1c[nH]c2ccccc12)C(=O)N[C@@H](C)c1ccccc1 | > 25 | > 25 | > 25 | > 25 | > 25 | > 25 | – | > 25 | > 25 | > 25 | > 25 | > 25 | > 25 | > 25 | – | > 25 | > 25 | > 25
O=S(=O)(C1=CC(S(=O)(=O)c2ccccc2)COC1)c1ccccc1 (centres undefined) | > 100 | > 100 | > 100 | > 100 | > 100 | > 100 | – | > 100 | > 100 | – | – | – | – | – | – | – | – | –
O=C(Nc1ccc(OS(=O)(=O)c2ccc(F)cc2)cc1)C12CC3CC(CC(C3)C1)C2 | > 100 | > 100 | – | – | > 100 | > 100 | 18.1 | > 100 | > 100 | 5.25 | 29.4 | – | 0.929 | 0.558 | 3.45 | 28.1 | – | > 27.5
O=c1cc(-c2ccc(Cl)cc2)[nH]c2ccccc12 | > 100 | > 100 | – | > 100 | > 100 | > 100 | > 100 | > 100 | > 100 | > 100 | 47.3 | 51.4 | 32.5 | 12.9 | 64.2 | > 100 | – | 39.3
Cc1cc(S(=O)(=O)/N=C(\N)Nc2cccc(O)c2)c(SCc2ccccc2)cc1Cl | > 100 | 34.2 | – | 37.2 | 34 | 48 | 36.3 | 66.8 | 31 | 14.8 | 16 | 12.7 | 12.6 | 18.6 | 9.89 | 14.1 | – | 20.5
CCOC(=O)/C(=C/CC/C(C)=C/CC/C(C)=C/CCc1ccoc1)CC(=O)N1CCCCC1 | 4.14 | 38.3 | 22.5 | – | 10.2 | 12.5 | 4.26 | 15.8 | 12.4 | 1.92 | 3.16 | – | 2.66 | 3.01 | 1.7 | 3.2 | 3.56 | 4.43
